Results from patent publication US10597388B2, “Pyridazinone herbicides” (FMC CORPORATION, priority 2014, dated 2020).

Assays:
Format in all cases: in vivo
[1] = system: galium (catchweed bedstraw, Galium aparine); experiment: Test A greenhouse herbicide test, postemergence; conditions: for Galium plant response rating: 0 is no effect, 100 is complete control
Outline: (§1)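 Visual injury score, 0 (no effect) to 100 (complete control), versus untreated controls roughly 10 d after postemergence spray; plants at one- to two-leaf stage, 2 to 10 cm tall, in loam soil and sand, kept in greenhouse.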

[2] = system: blackgrass (Alopecurus myosuroides); experiment: Test A greenhouse herbicide test, postemergence; conditions: for Blackgrass plant response rating: 0 is no effect, 100 is complete control
Outline: as §1

[3] = system: barnyardgrass (Echinochloa crus-galli); experiment: Test A greenhouse herbicide test, pre- and postemergence
Outline: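 Seeds in loam–sand blend received a preemergence directed soil spray; plants at 2–10 cm, one- to two-leaf stage, received postemergence sprays. Compounds in a non-phytotoxic solvent with surfactant. After about 10 d in a greenhouse, injury rated visually versus untreated controls on a 0–100 scale (100 = complete control).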

[4] = system: barnyardgrass (Echinochloa crus-galli); experiment: Test B flooded paddy test; conditions: 250 g ai/ha, Flood; visual rating on scale of 0 to 100 where 0 is no effect and 100 is complete control; 13 to 15 d after treatment
Outline: (§2)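 Plants grown to the 2-leaf stage. At treatment, pots were flooded to 3 cm above the soil, compound was applied directly to the paddy water, and that depth was held throughout. After 13 to 15 d in the greenhouse, response was rated visually against controls on a 0 (no effect) to 100 (complete control) scale.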

rice (Oryza sativa) = experiment: Test B flooded paddy test; conditions: 250 g ai/ha, Flood; visual rating on scale of 0 to 100 where 0 is no effect and 100 is complete control; 13 to 15 d after treatment
Outline: as §2

[5] = system: sedge, umbrella (small-flower umbrella sedge, Cyperus difformis); experiment: Test B flooded paddy test; conditions: 250 g ai/ha, Flood; visual rating on scale of 0 to 100 where 0 is no effect and 100 is complete control; 13 to 15 d after treatment
Outline: as §2

[6] = system: ducksalad (Heteranthera limosa); experiment: Test B flooded paddy test; conditions: 250 g ai/ha, Flood; visual rating on scale of 0 to 100 where 0 is no effect and 100 is complete control; 13 to 15 d after treatment
Outline: as §2

kochia (Kochia scoparia) = experiment: Test C greenhouse herbicide test, postemergence
Outline: (§3)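 Steps: pot plants in peat-based medium; spray postemergence at 1- to 4-leaf stage; hold in greenhouse 13 to 15 d; score visually against controls from 0 (no effect) to 100 (complete control).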

[7] = system: oat, wild (wild oat, Avena fatua); experiment: Test C greenhouse herbicide test, postemergence
Outline: as §3

[8] = system: chickweed (common chickweed, Stellaria media); experiment: Test C greenhouse herbicide test, postemergence
Outline: as §3

[9] = 125 g ai/ha, 0 to 100 scale where 0 is no effect and 100 is complete control
[10] = Postemergence, 125 g ai/ha, 0 to 100 scale where 0 is no effect and 100 is complete control
[11] = Postemergence, 500 g ai/ha, 0 to 100 scale, 0 is no effect, 100 is complete control
[12] = Preemergence, 125 g ai/ha, 0 to 100 scale where 0 is no effect and 100 is complete control
[13] = Preemergence, 500 g ai/ha, 0 to 100 scale where 0 is no effect and 100 is complete control
[14] = Postemergence, 125 g ai/ha, scale 0 to 100, 0 is no effect, 100 is complete control
[15] = Postemergence, 250 g ai/ha, scale 0 to 100, 0 no effect, 100 complete control, 13 to 15 d
[16] = postemergence, 62 g ai/ha, scale 0 to 100, 0 no effect, 100 complete control
[17] = Postemergence, 31 g ai/ha, 0 to 100 scale (0 no effect, 100 complete control)
[18] = 125 g ai/ha, 0 to 100 scale, 0 no effect, 100 complete control
[19] = 500 g ai/ha, visual rating after approx. 10 d, 0 to 100 scale (0 no effect, 100 complete control)
[20] = Postemergence, 500 g ai/ha, visual rating after approx. 10 d, 0 to 100 scale (0 no effect, 100 complete control)
[21] = Postemergence, 31 g ai/ha, scale 0 to 100 (0 no effect, 100 complete control)
[22] = Postemergence, 62 g ai/ha, 0 to 100 scale (0 no effect, 100 complete control)
[23] = Postemergence, 250 g ai/ha, scale 0 to 100, 0 is no effect, 100 is complete control
[24] = postemergence, 125 g ai/ha, scale 0 to 100, 0 no effect, 100 complete control
[25] = 125 g ai/ha, visual rating after approx. 10 d, 0 to 100 scale (0 no effect, 100 complete control)
[26] = Postemergence, 125 g ai/ha, visual rating after approx. 10 d, 0 to 100 scale (0 no effect, 100 complete control)
[27] = Preemergence, 500 g ai/ha, 0 to 100 scale, 0 no effect, 100 complete control

| Compound | Plant response rating, Galium [1, 9] | Galium plant response rating ([1]; 500 g ai/ha, 0 to 100 scale) | Blackgrass plant response rating ([2]; 500 g ai/ha, 0 to 100 scale) | Barnyardgrass plant response rating [3, 11] | Barnyardgrass plant response rating [3, 12] | Plant response rating, Barnyardgrass [3, 13] | Plant response rating, Barnyardgrass [4] | Plant response rating, Rice (rice (Oryza sativa)) | Plant response rating, Sedge, Umbrella [5] | Plant response rating, Ducksalad [6] | Plant response rating, Kochia (kochia (Kochia scoparia); [14]) | Plant response rating, Kochia (kochia (Kochia scoparia); [15]) | Kochia plant response rating (kochia (Kochia scoparia); [16]) | Plant response rating, Oat, Wild [7, 14] | Plant response rating, Oat, Wild [7, 15] | Oat, Wild plant response rating [7, 16] | Chickweed plant response rating [8, 17] | Plant response rating, Chickweed [8, 14] | Plant response rating, Chickweed [8, 15] | Chickweed plant response rating [8, 16] | other results |
| --- | --- | --- | --- | --- | --- | --- | --- | --- | --- | --- | --- | --- | --- | --- | --- | --- | --- | --- | --- | --- | --- |
| Cc1sc2ccccc2c1-c1c(O)c(Cl)nn(C)c1=O [Compound 89] | 90 | 90 | 60 | 80 | 50 | 60 | 0 | 0 | 40 | 65 | 90 | 100 | 90 | 30 | 40 | 10 | 90 | 100 | 100 | 95 | Plant response rating, Blackgrass [2, 9]: 30; Plant response rating, Barnyardgrass [3, 10]: 40 |
| Cc1nn(C)c(=O)c(-c2c([N+](=O)[O-])ccc3ccccc23)c1O [Compound 165] |  |  |  |  |  | 30 | 0 | 0 | 0 | 0 |  |  |  |  |  |  |  |  |  |  | Plant response rating, Galium [1, 18]: 100; Plant response rating, Galium [1, 19]: 100; Plant response rating, Blackgrass [2, 18]: 20; Plant response rating, Blackgrass [2, 19]: 50; Plant response rating, Barnyardgrass ([3]; Postemergence, 125 g ai/ha, 0 to 100 scale, 0 no effect, 100 complete control): 20; Plant response rating, Barnyardgrass [3, 20]: 30; Plant response rating, Barnyardgrass ([3]; Preemergence, 125 g ai/ha, visual injury rating, 0 to 100 scale (0 no effect, 100 complete control), approx. 10 d): 10; Plant response rating, Kochia (kochia (Kochia scoparia); [21]): 45; Kochia plant response rating (kochia (Kochia scoparia); [22]): 40; Plant response rating, Kochia (kochia (Kochia scoparia); [23]): 90; Kochia plant response rating (kochia (Kochia scoparia); [24]): 85; Plant response rating, Oat, Wild [7, 21]: 40; Oat, Wild plant response rating [7, 22]: 45; Plant response rating, Oat, Wild [7, 23]: 70; Oat, Wild plant response rating [7, 24]: 65; Plant response rating, Chickweed [8, 21]: 70; Chickweed plant response rating [8, 22]: 90; Plant response rating, Chickweed [8, 23]: 98; Chickweed plant response rating [8, 24]: 95 |
| Cc1ccc2ccccc2c1-c1c(O)c(Br)nn(C)c1=O [Compound 23] |  | 100 | 80 | 90 | 90 |  | 0 | 0 | 95 | 75 | 100 | 100 | 95 | 100 | 100 | 95 | 100 | 100 | 100 | 100 | Plant response rating, Galium [1, 25]: 100; Plant response rating, Blackgrass [2, 25]: 70; Plant response rating, Barnyardgrass [3, 26]: 80; Plant response rating, Barnyardgrass [3, 27]: 90; Kochia plant response rating (kochia (Kochia scoparia); [17]): 95; Oat, Wild plant response rating [7, 17]: 85 |
| Cc1nn(C)c(=O)c(-c2c(C)sc3ccc(C(F)(F)F)cc23)c1O [Compound 121] | 70 |  |  |  | 20 | 50 | 0 | 0 | 0 | 0 | 95 | 95 |  | 80 | 90 |  |  | 90 | 98 | 90 | Plant response rating, Galium [1, 19]: 90; Plant response rating, Blackgrass [2, 9]: 20; Plant response rating, Blackgrass [2, 19]: 50; Plant response rating, Barnyardgrass [3, 10]: 30; Plant response rating, Barnyardgrass [3, 20]: 50; Plant response rating, Kochia (kochia (Kochia scoparia); [21]): 90; Plant response rating, Oat, Wild [7, 21]: 65; Plant response rating, Chickweed [8, 21]: 90 |
| Cc1ccc2ccccc2c1-c1c(O)c(C(F)(F)F)nn(C)c1=O [Compound 102] | 100 |  | 70 | 90 | 40 | 60 | 0 | 0 | 50 | 0 | 20 | 50 |  | 10 | 25 |  |  | 95 | 98 | 95 | Plant response rating, Galium [1, 19]: 100; Plant response rating, Blackgrass [2, 9]: 20; Plant response rating, Barnyardgrass [3, 10]: 40; Plant response rating, Kochia (kochia (Kochia scoparia); [21]): 0; Plant response rating, Oat, Wild [7, 21]: 5; Plant response rating, Chickweed [8, 21]: 95 |
| Cc1ccc2ccccc2c1-c1c(O)c(I)nn(C)c1=O [Compound 29] |  | 90 | 80 | 80 | 70 |  | 0 | 0 | 60 | 55 | 75 | 85 | 60 | 85 | 95 | 55 | 95 | 100 | 100 | 95 | Plant response rating, Galium [1, 25]: 90; Plant response rating, Blackgrass [2, 25]: 70; Plant response rating, Barnyardgrass [3, 26]: 70; Plant response rating, Barnyardgrass [3, 27]: 90; Kochia plant response rating (kochia (Kochia scoparia); [17]): 60; Oat, Wild plant response rating [7, 17]: 60 |
| Cc1ccc2sc(C)c(-c3c(OC(=O)C(C)(C)C)c(C)nn(C)c3=O)c2c1 [Compound 26] |  | 90 | 70 | 30 | 0 |  | 0 | 0 | 0 | 0 | 90 | 100 | 70 | 95 | 90 | 80 | 95 | 100 | 100 | 95 | Plant response rating, Galium [1, 25]: 70; Plant response rating, Blackgrass [2, 25]: 30; Plant response rating, Barnyardgrass [3, 26]: 10; Plant response rating, Barnyardgrass [3, 27]: 10; Kochia plant response rating (kochia (Kochia scoparia); [17]): 80; Oat, Wild plant response rating [7, 17]: 60 |
